The values below come from patent US20240101531A1, “PYRIDINAMINE DERIVATIVES AND THEIR USE AS POTASSIUM CHANNEL MODULATORS” (Xenon Pharmaceuticals Inc., priority 2022, published 2024).

SMILES strings stand for the structures. Structures can show the parent of a compound that is named as a salt. Bounds are passed on as bounds.

In this assay the target is human KV7.2/KV7.3 (Homo sapiens (Human), UniProt O43525+O43526). Put plainly: Potassium flux assay (IPG-2 AM dye). Format: cell-based. The conditions noted are these: TREX HEK 293 or HEK 293 cells expressing human KV7.2/KV7.3; arithmetic mean values. In a few lines: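 HEK 293 or TREX HEK 293 cells stably expressing human KV7.2/KV7.3 (tetracycline-induced where needed), loaded with IPG-2 AM, then compound for 20 min at room temperature. Flux triggered by K challenge buffer (10 mM KCl, pH 7.4), read at 530/558 nm; EC50 from 16-point 2-fold series from 30 μM, normalised to DMSO and reference modulator.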

Usually EC50 stands for the midpoint of the concentration-response curve. Take `Clc1ccc(Nc2nccc3cc(OC4CCOCC4)ccc23)cn1` [Example 197, N-(6-chloropyridin-3-yl)-6-((tetrahydro-2H-pyran-4-yl)oxy)isoquinolin-1-amine]: the 50% effective concentration (EC50) is less than 1 µM.

As for `FC(F)(F)CN1CC(Oc2ccc3c(Nc4ccc(Cl)nc4)nccc3c2)C1` [Example 325, N-(6-chloropyridin-3-yl)-6-((1-(2,2,2-trifluoroethyl)azetidin-3-yl)oxy)isoquinolin-1-amine], the EC50 fell in the range of 1 to 10 µM.

With `Clc1ccc(Nc2nccc3cc(OCc4cnn(C5COC5)c4)ccc23)cn1` [Example 117, N-(6-chloropyridin-3-yl)-6-((1-(oxetan-3-yl)-1H-pyrazol-4-yl)methoxy)isoquinolin-1-amine], the concentration giving a half-maximal response (EC50) was less than 1 µM.

In the case of `Clc1ccc(Nc2nccc3cc(OCc4cnn(C5CC5)c4)ccc23)cn1` [Example 289, N-(6-chloropyridin-3-yl)-6-((1-cyclopropyl-1H-pyrazol-4-yl)methoxy)isoquinolin-1-amine], the EC50 was 1 to 10 µM.

On to `NC(=O)C1(COc2ccc3c(Nc4cnc(Cl)nc4)nccc3c2)CC1` [Example 361, 1-(((1-((2-chloropyrimidin-5-yl)amino)isoquinolin-6-yl)oxy)methyl)cyclopropane-1-carboxamide], for which the concentration for a half-maximal effect (EC50) was less than 1 µM.

Consider `O=C(N[C@H]1CCC[C@@H](Oc2ccc3c(Nc4cnc(Cl)nc4)nccc3c2)C1)C(F)(F)F` [Example 377, N-((1 S,3R)-3-((1-((2-chloropyrimidin-5-yl)amino)isoquinolin-6-yl)oxy)cyclohexyl)-2,2,2-trifluoroacetamide], for which the concentration for a half-maximal effect (EC50) was less than 1 µM.

As for `COc1ncc(Nc2nccc3cc(OCC4(C#N)CC4)ccc23)cn1` [Example 373, 1-(((1-((2-methoxypyrimidin-5-yl)amino)isoquinolin-6-yl)oxy)methyl)cyclopropane-1-carbonitrile], the EC50 was less than 1 µM.

For the compound `COc1ncc(Nc2nccc3cc(OCC4CC4)ccc23)cn1` [Example 372, 6-(cyclopropylmethoxy)-N-(2-methoxypyrimidin-5-yl)isoquinolin-1-amine], the EC50 was in the range of 1 to 10 µM.

As to `CC1(C)OCC(COc2ccc3c(Nc4ccc(Cl)nc4)nccc3c2)O1` (stereo not drawn) [Example 299, N-(6-chloropyridin-3-yl)-6-((2,2-dimethyl-1,3-dioxolan-4-yl)methoxy)isoquinolin-1-amine], the half-maximal effective concentration (EC50) is less than 1 µM.

`Cc1cc(COc2ccc3c(Nc4ccc(Cl)nc4)nccc3c2)n[nH]1` [Example 392, N-(6-chloropyridin-3-yl)-6-((5-methyl-1H-pyrazol-3-yl)methoxy)isoquinolin-1-amine]: the EC50 lay in the range of 1 to 10 µM.

As for `CCc1ncc(Nc2nccc3cc(OCC4(F)CC4)ccc23)cn1` [Example 44, N-(2-ethylpyrimidin-5-yl)-6-((1-fluorocyclopropyl)methoxy)isoquinolin-1-amine], the EC50 was 10 to 30 µM.

For `COC1(COc2ccc3c(Nc4ccc(Cl)nc4)nccc3c2)COC1` [Example 220, N-(6-chloropyridin-3-yl)-6-((3-methoxyoxetan-3-yl)methoxy)isoquinolin-1-amine], the EC50 is less than 1 µM.

In the case of `N#CC1(COc2ccc3c(Nc4ccc(Cl)nc4)nccc3c2)CCOCC1` [Example 50, 4-(((1-((6-chloropyridin-3-yl)amino)isoquinolin-6-yl)oxy)methyl)tetrahydro-2H-pyran-4-carbonitrile], the EC50 is less than 1 µM.

Take `O[C@H]1CCC[C@@H](Oc2ccc3c(Nc4ccc(Cl)nc4)nccc3c2)C1` [Example 347, (1 S,3R)-3-((1-((6-chloropyridin-3-yl)amino)isoquinolin-6-yl)oxy)cyclohexan-1-ol]: the concentration giving a half-maximal response (EC50) was less than 1 µM.

Turning to `Cn1ccnc1COc1ccc2c(Nc3ccc(Cl)nc3)nccc2c1` [Example 198, N-(6-chloropyridin-3-yl)-6-((1-methyl-1H-imidazol-2-yl)methoxy)isoquinolin-1-amine], the EC50 is 1 to 10 µM.

Consider `O=C(C1CC1)N1CCC(Oc2ccc3c(Nc4ccc(Cl)nc4)nccc3c2)CC1` [Example 121, (4-((1-((6-chloropyridin-3-yl)amino)isoquinolin-6-yl)oxy)piperidin-1-yl)(cyclopropyl)methanone], for which the EC50 lay in the range of 1 to 10 µM.

Turning to `Cc1ncc(Nc2nccc3cc(OCC4CCC(C)(C)O4)ccc23)cn1` (stereo not drawn) [Example 27, 6-((5,5-dimethyltetrahydrofuran-2-yl)methoxy)-N-(2-methylpyrimidin-5-yl)isoquinolin-1-amine], the EC50 lay within 1 to 10 µM.

Regarding `Cn1ccc(COc2ccc3c(Nc4cnc(Cl)nc4)nccc3c2)n1` [Example 203, N-(2-chloropyrimidin-5-yl)-6-((1-methyl-1H-pyrazol-3-yl)methoxy)isoquinolin-1-amine], the half-maximal effective concentration (EC50) is less than 1 µM.

On to `Clc1ccc(Nc2nccc3cc(OC4CCN(Cc5ccccc5)C4)ccc23)cn1` (stereo not drawn) [Example 282, 6-((1-benzylpyrrolidin-3-yl)oxy)-N-(6-chloropyridin-3-yl)isoquinolin-1-amine], for which the EC50 lay within 1 to 10 µM.

Consider `COC(=O)c1ccc2c(Nc3ccc(Cl)nc3)nccc2c1` [Example 10, methyl 1-((6-chloropyridin-3-yl)amino)isoquinoline-6-carboxylate], for which the EC50 is 10 to 30 µM.

On to `FC(F)CN1CCC(Oc2ccc3c(Nc4ccc(Cl)nc4)nccc3c2)CC1` [Example 315, N-(6-chloropyridin-3-yl)-6-((1-(2,2-difluoroethyl)piperidin-4-yl)oxy)isoquinolin-1-amine], for which the EC50 was 1 to 10 µM.

Turning to `N#CCn1cc(COc2ccc3c(Nc4ccc(Cl)nc4)nccc3c2)cn1` [Example 400, 2-(4-(((1-((6-chloropyridin-3-yl)amino)isoquinolin-6-yl)oxy)methyl)-1H-pyrazol-1-yl)acetonitrile], the concentration for a half-maximal effect (EC50) was less than 1 µM.

Regarding `Clc1ccc(Nc2nccc3cc(O[C@@H]4CCC5(COC5)C4)ccc23)cn1` [Example 138, (R)-6-((2-oxaspiro[3.4]octan-6-yl)oxy)-N-(6-chloropyridin-3-yl)isoquinolin-1-amine], the 50% effective concentration (EC50) was less than 1 µM.

With `N#CC1(Oc2ccc3c(Nc4cnc(Cl)nc4)nccc3c2)CC1` [Example 60, 1-((1-((2-chloropyrimidin-5-yl)amino)isoquinolin-6-yl)oxy)cyclopropane-1-carbonitrile], the concentration giving a half-maximal response (EC50) lay within 1 to 10 µM.

Regarding `Clc1ccc(Nc2nccc3cc(OC4CCC45COC5)ccc23)cn1` (stereo not drawn) [Example 290, 6-((2-oxaspiro[3.3]heptan-5-yl)oxy)-N-(6-chloropyridin-3-yl)isoquinolin-1-amine], the concentration giving a half-maximal response (EC50) is less than 1 µM.

For `F[C@H]1C[C@H]1COc1ccc2c(Nc3ccc(Cl)nc3)nccc2c1` [Example 414, N-(6-chloropyridin-3-yl)-6-(((1S,2S)-2-fluorocyclopropyl)methoxy)isoquinolin-1-amine], the half-maximal effective concentration (EC50) was in the range of 1 to 10 µM.

With `N#CC1(COc2ccc3c(Nc4cnc(Cl)nc4)nccc3c2)CC1` [Example 207, 1-(((1-((2-chloropyrimidin-5-yl)amino)isoquinolin-6-yl)oxy)methyl)cyclopropane-1-carbonitrile], the concentration for a half-maximal effect (EC50) was less than 1 µM.

In the case of `N#CCC1(COc2ccc3c(Nc4cnc(Cl)nc4)nccc3c2)CC1` [Example 147, 2-(1-(((1-((2-chloropyrimidin-5-yl)amino)isoquinolin-6-yl)oxy)methyl)cyclopropyl)acetonitrile], the EC50 was less than 1 µM.

With `Clc1ccc(Nc2nccc3cc(OCCCCCn4cncn4)ccc23)cn1` [Example 168, 6-((5-(1H-1,2,4-triazol-1-yl)pentyl)oxy)-N-(6-chloropyridin-3-yl)isoquinolin-1-amine], the EC50 was 1 to 10 µM.

For `Cc1ccc2c(Nc3ccc(Cl)nc3)nccc2c1` [Example 20, N-(6-chloropyridin-3-yl)-6-methylisoquinolin-1-amine formate], the 50% effective concentration (EC50) lay within 1 to 10 µM.

With `CC(Oc1ccc2c(Nc3ccc(Cl)nc3)nccc2c1)C1(F)CC1` (stereo not drawn) [Example 91, N-(6-chloropyridin-3-yl)-6-(1-(1-fluorocyclopropyl)ethoxy)isoquinolin-1-amine], the EC50 was less than 1 µM.

For `Clc1ccc(Nc2nccc3ccoc23)cn1` [Example 16, N-(6-chloropyridin-3-yl)furo[2,3-c]pyridin-7-amine formate], the concentration for a half-maximal effect (EC50) fell in the range of 1 to 10 µM.

Consider `CC1(C)CC1(C#N)COc1ccc2c(Nc3cnc(Cl)nc3)nccc2c1` (stereo not drawn) [Example 351, 1-(((1-((2-chloropyrimidin-5-yl)amino)isoquinolin-6-yl)oxy)methyl)-2,2-dimethylcyclopropane-1-carbonitrile], for which the concentration for a half-maximal effect (EC50) is less than 1 µM.

Consider `C[C@@](O)(COc1ccc2c(Nc3ccc(Cl)nc3)nccc2c1)C(F)(F)F` [Example 224, (R)-3-((1-((6-chloropyridin-3-yl)amino)isoquinolin-6-yl)oxy)-1,1,1-trifluoro-2-methylpropan-2-ol], for which the concentration giving a half-maximal response (EC50) is less than 1 µM.

`Cc1ncc(Nc2nccc3cc(N=S(C)(=O)C4CC4)ccc23)cn1` (stereo not drawn) [Example 278, cyclopropyl(methyl)((1-((2-methylpyrimidin-5-yl)amino)isoquinolin-6-yl)imino)-λ^6-sulfanone]: the EC50 lay within 1 to 10 µM.

`Clc1ccc(Nc2nccc3cc(OC4CCOC4)ccc23)cn1` (stereo not drawn) [Example 263, N-(6-chloropyridin-3-yl)-6-((tetrahydrofuran-3-yl)oxy)isoquinolin-1-amine]: the half-maximal effective concentration (EC50) was less than 1 µM.

Take `CC(Cc1cccnc1)Oc1ccc2c(Nc3ccc(Cl)nc3)nccc2c1` (stereo not drawn) [Example 106, N-(6-chloropyridin-3-yl)-6-((1-(pyridin-3-yl)propan-2-yl)oxy)isoquinolin-1-amine]: the EC50 was 1 to 10 µM.

On to `Clc1ccc(Nc2nccc3cc(OCc4cnn5c4CCCC5)ccc23)cn1` [Example 285], for which the EC50 fell in the range of 1 to 10 µM.

`C#CC(C)(C)COc1ccc2c(Nc3ccc(Cl)nc3)nccc2c1` [Example 136, N-(6-chloropyridin-3-yl)-6-((2,2-dimethylbut-3-yn-1-yl)oxy)isoquinolin-1-amine]: the 50% effective concentration (EC50) was in the range of 1 to 10 µM.
